Experimental data taken from patent US10206398B2, “Five-membered C-N-attached aryl sulphide and aryl sulphoxide derivatives as pesticides” (BAYER CROPSCIENCE AKTIENGESELLSCHAFT, priority 2014, dated 2019).
Where two headings read alike, the source gives them in different places.

Columns and labels:
[1] = log P determination by HPLC on reversed-phase columns (C 18), analogous to OECD Guideline 117; assay type: physicochemical; conditions: for logP[a]: method [a]; for logP[b]: method [b]; for chromatographic logP: reversed-phase HPLC column (C 18)
Method: The log P values were determined analogously to OECD Guideline 117 (EC Directive 92/69/EEC) by HPLC (high-performance liquid chromatography) using reversed-phase columns (C 18), by the following methods: [a] The LC-MS determination in the acidic range was effected at pH 2.7 with 0.1% aqueous formic acid and acetonitrile (contains 0.1% formic acid) as eluents; linear gradient from 10% acetonitrile to 95% acetonitrile. log P[a] is also referred to as log P(HCOOH). [b] LC-MS determination in the neutral range was effected at pH 7.8 with 0.001 molar aqueous ammonium hydrogencarbonate solution and acetonitrile as eluents; linear gradient from 10% acetonitrile to 95% acetonitrile. log P[b] is also referred to as log P(neutral). Calibration is effected with solutions of a homologous series of unbranched alkan-2-ones (having 3 to 16 carbon atoms) with known log P values (log P values determined on the basis of the retention times by linear interpolation between two successive alkanones).

Tetranychus urticae = Tetranychus urticae - spray test, OP-resistant (bean leaf discs, 6 days); assay type: in vivo; conditions: 500 g/ha, after 6 days; for pest or weed control at 500 g/ha: Tetranychus urticae, foliar, 144 h, read-out: efficacy (spider mites killed)
Method: 5. Tetranychus urticae—Spray Test, OP-Resistant
Solvent: 78.0 parts by weight of acetone
• 1.5 parts by weight of dimethylformamide Emulsifier: alkylaryl polyglycol ether
To produce a suitable preparation of active compound, 1 part by weight of active compound is dissolved using the stated parts by weight of solvent and made up with water containing an emulsifier concentration of 1000 ppm until the desired concentration is attained. To produce further test concentrations, the preparation is diluted with emulsifier-containing water.
Discs of bean leaves (Phaseolus vulgaris) infested with all stages of the greenhouse red spider mite (Tetranychus urticae) are sprayed with an active compound preparation of the desired concentration.
After 6 days, the efficacy in % is determined. 100% means that all the spider mites have been killed; 0% means that no spider mites have been killed.

[2] = pH 2.7, HPLC, acidic range, pH 2.7, 0.1% aqueous formic acid and acetonitrile, read-out: log P(HCOOH)
[3] = pH 2.7, Table 3, HPLC, acidic range, pH 2.7, read-out: logP[a]
[4] = pH 7.8, HPLC, neutral range, pH 7.8, 0.001 molar aqueous ammonium hydrogencarbonate and acetonitrile, read-out: log P(neutral)
[5] = pH 7.8, Table 3, HPLC, neutral range, pH 7.8, read-out: logP[b]
[6] = pH 2.7, method [a], read-out: logP[a]
[7] = pH 7.8, method [b], read-out: logP[b]

Compound | logP[a] [1] | logP[b] [1] | efficacy (spider mites killed) (Tetranychus urticae) [%] | also measured
Cc1cc(C)c(N2C(=O)CN(C(=O)NCc3ccccc3)C2=O)cc1SCC(F)(F)F [compound 92] | 3.75 | 3.66 | 90 | –
Cc1cc(F)c(N2C(=O)CN(C(=O)N3CCS(=O)(=O)CC3)C2=O)cc1[S+]([O-])CC(F)(F)F (stereo not drawn) [compound 134] | 1.66 | 1.69 | 90 | –
Cc1cc(F)c(N2C(=O)CNC2=S)cc1SCC(F)(F)F [IIa-2, 3-[2-Fluoro-4-methyl-5-(2,2,2-trifluoroethylsulphanyl)phenyl]-2-thioxoimidazolidin-4-one] | – | – | – | chromatographic logP [1, 2]: 2.53; chromatographic logP [1, 3]: 2.53; chromatographic logP [1, 4]: 2.5; chromatographic logP [1, 5]: 2.5; pest or weed control at 500 g/ha (Tetranychus urticae): 100%
Cc1cc(C)c(N2C(=O)CN(C(=O)Nc3ccccn3)C2=O)cc1SCC(F)(F)F [compound 95] | 3.47 | 3.42 | – | –
Cc1cc(Cl)c(N2C(=O)CN(C(=O)Nc3ccc(F)cc3)C2=O)cc1[S+]([O-])CC(F)(F)F (racemic) [compound 100] | 3.17 | 3.09 | 100 | –
O=C(NCc1ccccc1)N1CC(=O)N(c2cc([S+]([O-])CC(F)(F)F)c(Cl)cc2Cl)C1=O (racemic) [compound 115] | 3.23 | 3.29 | 100 | –
Cc1cc(F)c(N2C(=O)N(C(=O)NCc3ccccc3)C(C)(C)C2=O)cc1[S+]([O-])CC(F)(F)F (racemic) [compound 87] | 3.48 | 3.38 | 100 | –
Cc1cc(F)c(N2C(=O)N(C(=O)NCC(F)(F)F)C(C)(C)C2=O)cc1SCC(F)(F)F [compound 75] | 4.02 | 3.95 | – | –
CCNC(=O)N1C(=O)N(c2cc(SCC(F)(F)F)c(C)cc2F)C(=O)C1(C)C [compound 73] | 3.72 | 3.70 | – | –
Cc1cc(F)c(N2C(=O)CN(C(=O)Nc3cccnc3)C2=O)cc1SCC(F)(F)F [compound 17] | 2.37 | 2.75 | – | –
Cc1cc(F)c(N2C(=O)CN(C(=O)NCC(C)C)C2=S)cc1SCC(F)(F)F [compound 11] | 4.27 | 4.18 | – | –
Cc1cc(F)c(N2C(=O)CN(C(=O)NCC(C)C)C2=O)cc1SCC(F)(F)F [Ex. No. 12, 3-[2-Fluoro-4-methyl-5-(2,2,2-trifluoroethylsulphanyl)phenyl]-N-isobutyl-2,4-dioxoimidazolidine-1-carboxamide] | – | – | – | chromatographic logP [1, 2]: 3.67; chromatographic logP [1, 6]: 3.67; chromatographic logP [1, 4]: 3.58; chromatographic logP [1, 7]: 3.58; pest or weed control at 500 g/ha (Tetranychus urticae): 100%
CCNC(=O)N1CC(=O)N(c2cc(SCC(F)(F)F)c(C)cc2C)C1=O [compound 31] | 3.14 | 3.04 | 90 | –
Cc1cc(Cl)c(N2C(=O)CN(C(=O)Nc3ccccn3)C2=O)cc1SCC(F)(F)F [compound 96] | 3.55 | 3.51 | – | –
O=C(NC1CC1)N1CC(=O)N(c2cc(SCC(F)(F)F)c(Cl)cc2Cl)C1=O [compound 104] | 3.3 | 3.37 | 100 | –
Cc1cc(F)c(N2C(=O)N(C(=O)NCC(C)C)C(C)(C)C2=O)cc1[S+]([O-])CC(F)(F)F (racemic) [compound 86] | 3.41 | 3.39 | 100 | –
CCNC(=O)N1C(=O)N(c2cc(SCC(F)(F)F)c(C)cc2F)C(=O)C1C (stereo not drawn) [Ex. No. 24, N-Ethyl-3-[2-fluoro-4-methyl-5-(2,2,2-trifluoroethylsulphanyl)phenyl]-5-methyl-2,4-dioxoimidazolidine-1-carboxamide] | – | – | – | chromatographic logP [1, 2]: 3.38; chromatographic logP [1, 6]: 3.38; chromatographic logP [1, 4]: 3.3; chromatographic logP [1, 7]: 3.3; pest or weed control at 500 g/ha (Tetranychus urticae): 100%
Cc1cc(Cl)c(N2C(=O)CN(C(=O)Nc3ccccn3)C2=O)cc1[S+]([O-])CC(F)(F)F (racemic) [compound 119] | 2.65 | 2.65 | – | –
Cc1cc(F)c(N2C(=O)NC(C)C2=O)cc1SCC(F)(F)F (stereo not drawn) [IIa-3, 3-[2-Fluoro-4-methyl-5-(2,2,2-trifluoroethylsulphanyl)phenyl]-5-methylimidazolidine-2,4-dione] | – | – | – | chromatographic logP [1, 2]: 2.34; chromatographic logP [1, 3]: 2.34; chromatographic logP [1, 4]: 2.31; chromatographic logP [1, 5]: 2.31
COCCNC(=O)N1CC(=O)N(c2cc([S+]([O-])CC(F)(F)F)c(C)cc2F)C1=O (racemic) [compound 82] | 1.97 | 1.94 | 100 | –
Cc1cc(F)c(N2C(=O)CN(C(=O)NCC(F)(F)F)C2=O)cc1[S+]([O-])CC(F)(F)F (single isomer, unassigned) [Ex. No. 135] | 2.4 | 2.44 | – | –
O=C(Nc1cccc(Cl)c1)N1CC(=O)N(c2cc([S+]([O-])CC(F)(F)F)c(Cl)cc2Cl)C1=O (racemic) [compound 117] | 3.81 | 3.89 | 100 | –
Cc1cc(F)c(N2C(=O)NC(C)(C)C2=O)cc1SCC(F)(F)F [IIa-5, 3-[2-Fluoro-4-methyl-5-(2,2,2-trifluoroethylsulphanyl)phenyl]-5,5-dimethylimidazolidine-2,4-dione] | – | – | – | chromatographic logP [1, 2]: 2.61; chromatographic logP [1, 3]: 2.61; chromatographic logP [1, 4]: 2.53; chromatographic logP [1, 5]: 2.53
Cc1cc(C)c([S+]([O-])CC(F)(F)F)cc1N1C(=O)CN(C(=O)NCC(C)C)C1=O (stereo not drawn) [compound 35] | 2.77 | 2.76 | – | –
Cc1cc(F)c(N2C(=O)CN(C(=O)NC(C)C)C2=S)cc1SCC(F)(F)F [compound 5] | 3.98 | 3.87 | – | –
O=C(NCc1ccccc1)N1CC(=O)N(c2cc(SCC(F)(F)F)c(Cl)cc2Cl)C1=O [compound 107] | 3.86 | 3.90 | – | –
Cc1cc(F)c(N2C(=O)CN(C(=O)NC3CC3)C2=S)cc1SCC(F)(F)F [Ex. No. 2, N-Cyclopropyl-3-[2-fluoro-4-methyl-5-(2,2,2-trifluoroethylsulphanyl)phenyl]-4-oxo-2-thioxoimidazolidine-1-carboxamide] | – | – | – | chromatographic logP [1, 2]: 3.66; chromatographic logP [1, 6]: 3.66; chromatographic logP [1, 4]: 3.56; chromatographic logP [1, 7]: 3.56
CCNC(=O)N1CC(=O)N(c2cc(SCC(F)(F)F)c(C)cc2F)C1=S [Ex. No. 8] | 3.91 | 3.86 | – | –

The next lines start with results.

logP[a] [1] | logP[b] [1] | Compound | efficacy (spider mites killed) (Tetranychus urticae) [%] | also measured
4.56 | 4.61 | O=C(Nc1cccc(C(F)(F)F)c1)N1CC(=O)N(c2cc(SCC(F)(F)F)c(Cl)cc2Cl)C1=O [compound 110] | 100 | –
4.23 | 4.16 | Cc1cc(F)c(N2C(=O)CN(C(=O)Nc3cccc(Cl)c3)C2=O)cc1SCC(F)(F)F [compound 45] | 100 | –
3.21 | 3.28 | CC(C)CNC(=O)N1CC(=O)N(c2cc([S+]([O-])CC(F)(F)F)c(Cl)cc2Cl)C1=O (racemic) [compound 113] | 100 | –
3.95 | 3.86 | Cc1cc(C)c(N2C(=O)CN(C(=O)Nc3ccc(F)cc3)C2=O)cc1SCC(F)(F)F [compound 93] | – | –
3.64 | 3.53 | Cc1cc(F)c(N2C(=O)CN(C(=O)NCc3ccccc3)C2=O)cc1SCC(F)(F)F [compound 18] | 90 | –
2.73 | 2.70 | CCNC(=O)N1C(=O)N(c2cc([S+]([O-])CC(F)(F)F)c(C)cc2F)C(=O)C1(C)C (racemic) [compound 83] | 90 | –
4.43 | 4.35 | Cc1cc(C)c(N2C(=O)CN(C(=O)Nc3cccc(CC(F)(F)F)c3)C2=O)cc1SCC(F)(F)F [compound 55] | 90 | –
1.72 | 1.61 | Cc1cc(F)c(N2C(=O)CN(C(=O)N3CCN(C)CC3)C2=O)cc1[S+]([O-])CC(F)(F)F (stereo not drawn) [compound 127] | 100 | –
3.53 | 3.59 | Cc1cc(F)c(N2C(=O)CN(C(=O)N(C)CC(C)C)C2=O)cc1SCC(F)(F)F [compound 124] | – | –
4.32 | 4.19 | Cc1cc(C)c(N2C(=O)CN(C(=O)Nc3cccc(Cl)c3)C2=O)cc1SCC(F)(F)F [compound 56] | – | –
